Source: ChEMBL document CHEMBL1155980, “Prenyloxyphenylpropanoids as a novel class of anticonvulsive agents” (2009)
The source made the active and inactive calls. The rule behind the calls is not given here.

Key:
Mus musculus [1] = experiment: Anticonvulsant activity in mouse at 300 mg/kg, ip after 120 mins by MES test; type: functional, organism-based; parameters: dose 300 mg/kg
Mus musculus [2] = experiment: Anticonvulsant activity in mouse at 300 mg/kg, ip after 5 mins by MES test; type: functional, organism-based; parameters: dose 300 mg/kg
Mus musculus [3] = experiment: Anticonvulsant activity in mouse at 300 mg/kg, ip after 15 mins by MES test; type: functional, organism-based; parameters: dose 300 mg/kg
Mus musculus [4] = experiment: Anticonvulsant activity in mouse at 300 mg/kg, ip after 60 mins by MES test; type: functional, organism-based; parameters: dose 300 mg/kg
Mus musculus [5] = experiment: Anticonvulsant activity in mouse at 300 mg/kg, ip after 30 mins by MES test; type: functional, organism-based; parameters: dose 300 mg/kg
Mus musculus [6] = species on record: Mus musculus; experiment: Anticonvulsant activity in mouse after 60 mins by MES test; type: functional; conditions: 1 h
Mus musculus [7] = species on record: Mus musculus; experiment: Anticonvulsant activity in mouse after 5 mins by MES test; type: functional
Mus musculus [8] = species on record: Mus musculus; experiment: Anticonvulsant activity in mouse after 15 mins by MES test; type: functional; conditions: 0.25 h
Thoracic aorta = experiment: Muscle relaxant activity in rat thoracic aorta assessed as inhibition of KCl-induced contraction at 100 uM; type: functional
Mus musculus [9] = species on record: Mus musculus; experiment: Anticonvulsant activity in mouse after 30 mins by MES test; type: functional; conditions: 0.5 h

CC(=O)c1ccc(OC/C=C(\C)CCC=C(C)C)cc1O
Activity (Mus musculus [1]): inactive
Activity (Mus musculus [2]): inactive
Activity (Mus musculus [3]): inactive
Activity (Mus musculus [4]): inactive
Activity (Mus musculus [5]): inactive

CC(C)=CCOc1ccc(CCC(=O)O)cc1
Activity (Mus musculus [1]): inactive
Activity (Mus musculus [2]): inactive
Activity (Mus musculus [3]): inactive
Activity (Mus musculus [4]): inactive
Activity (Mus musculus [5]): inactive

CC(C)=CCOc1ccc2ccc(=O)oc2c1 [7-PRENYLOXYCOUMARIN]
Activity (Mus musculus [1]): inactive
ED50 (Mus musculus [6]): > 350 mg/kg
Activity (Mus musculus [2]): Active
ED50 (Mus musculus [7]): > 350 mg/kg
ED50 (Mus musculus [8]): 238 mg/kg
Activity (Mus musculus [3]): Active
inhibition at 100 µM (Thoracic aorta): 80%
ED50 (Mus musculus [9]): 221 mg/kg
Activity (Mus musculus [5]): Active

CC(C)=CCOc1ccc2ccc(=O)oc2c1O
Activity (Mus musculus [1]): inactive
Activity (Mus musculus [4]): inactive
Activity (Mus musculus [5]): inactive

CC(C)=CCC/C(C)=C/COc1ccc(C(=O)/C=C/c2ccc(O)cc2)c(O)c1
Activity (Mus musculus [1]): inactive
Activity (Mus musculus [2]): inactive
Activity (Mus musculus [3]): inactive
Activity (Mus musculus [4]): inactive
Activity (Mus musculus [5]): inactive

CC(=O)c1ccc(OCC=C(C)C)cc1O
Activity (Mus musculus [1]): inactive
Activity (Mus musculus [2]): inactive
Activity (Mus musculus [3]): inactive
Activity (Mus musculus [4]): inactive
Activity (Mus musculus [5]): inactive

CC(C)=CCOc1ccc(/C=C/C(=O)O)cc1
Activity (Mus musculus [1]): inactive
ED50 (Mus musculus [6]): > 350 mg/kg
Activity (Mus musculus [2]): Active
ED50 (Mus musculus [7]): 228 mg/kg
ED50 (Mus musculus [8]): 262 mg/kg
Activity (Mus musculus [3]): Active
ED50 (Mus musculus [9]): 312 mg/kg

COc1cc(C(=O)O)ccc1OC/C=C(\C)CCC=C(C)C
Activity (Mus musculus [1]): inactive
Activity (Mus musculus [2]): inactive
Activity (Mus musculus [3]): inactive
Activity (Mus musculus [4]): inactive
Activity (Mus musculus [5]): inactive

CC(C)=CCC/C(C)=C/COc1ccc(/C=C/C(=O)O)cc1
Activity (Mus musculus [1]): inactive
Activity (Mus musculus [2]): inactive
Activity (Mus musculus [3]): inactive
Activity (Mus musculus [4]): inactive
Activity (Mus musculus [5]): inactive

CC(C)=CCC/C(C)=C/COc1ccc2ccc(=O)oc2c1
Activity (Mus musculus [2]): inactive
Activity (Mus musculus [3]): inactive
Activity (Mus musculus [4]): inactive
Activity (Mus musculus [5]): inactive

COc1cc(/C=C/C(=O)O)ccc1OCC=C(C)C
Activity (Mus musculus [1]): inactive
Activity (Mus musculus [2]): inactive
Activity (Mus musculus [3]): inactive
Activity (Mus musculus [4]): inactive
Activity (Mus musculus [5]): inactive

COc1c(OC/C=C(\C)CCC=C(C)C)ccc2ccc(=O)oc12
Activity (Mus musculus [1]): inactive
Activity (Mus musculus [3]): inactive
Activity (Mus musculus [4]): inactive
Activity (Mus musculus [5]): inactive

CC(C)=CCOc1ccc(C(=O)/C=C/c2ccccc2)c(O)c1
Activity (Mus musculus [1]): inactive
Activity (Mus musculus [2]): inactive
Activity (Mus musculus [3]): inactive
Activity (Mus musculus [4]): inactive
Activity (Mus musculus [5]): inactive

COc1cc(/C=C/C(=O)O)ccc1OC/C=C(\C)CCC=C(C)C
Activity (Mus musculus [1]): inactive
ED50 (Mus musculus [6]): > 350 mg/kg
ED50 (Mus musculus [7]): 225 mg/kg
ED50 (Mus musculus [8]): 224 mg/kg
Activity (Mus musculus [3]): Active
ED50 (Mus musculus [9]): 224 mg/kg
Activity (Mus musculus [5]): Active

COc1c(OCC=C(C)C)ccc2ccc(=O)oc12
Activity (Mus musculus [1]): inactive
Activity (Mus musculus [2]): inactive
Activity (Mus musculus [3]): inactive
Activity (Mus musculus [4]): inactive
Activity (Mus musculus [5]): inactive

CC(C)=CCOc1ccc(C(=O)/C=C/c2ccc(O)cc2)c(O)c1
Activity (Mus musculus [1]): inactive
Activity (Mus musculus [2]): inactive
Activity (Mus musculus [3]): inactive
Activity (Mus musculus [4]): inactive
Activity (Mus musculus [5]): inactive

COc1cc(C(=O)O)ccc1OCC=C(C)C
Activity (Mus musculus [1]): inactive
Activity (Mus musculus [2]): inactive
Activity (Mus musculus [3]): inactive
Activity (Mus musculus [4]): inactive
Activity (Mus musculus [5]): inactive
